Data: patent publication US20050070594A1, “Use of angiotensin II receptor antagonists” (Boehringer Ingelheim International GmbH, priority 2003, published 2005)
Structures can show the parent of a compound that is named as a salt.

How the values were obtained:
[1] = target: T1, human PPARgamma-ligand binding domain (LBD) (Homo sapiens, UniProt P37231); assay: AlphaScreen: recruiting of biotinylated LXXLL peptide of cofactor CBP to GST-PPARgamma-LBD; format: biochemical; details: concentrations of up to 50 μM
T1 construct: codes for the amino acids 205-505 of the human PPARgamma2 transcription factor; made in house; host or cells: E. coli BL21(DE3), vector pGEX-4T-1
T1 sequence (P37231 205-505): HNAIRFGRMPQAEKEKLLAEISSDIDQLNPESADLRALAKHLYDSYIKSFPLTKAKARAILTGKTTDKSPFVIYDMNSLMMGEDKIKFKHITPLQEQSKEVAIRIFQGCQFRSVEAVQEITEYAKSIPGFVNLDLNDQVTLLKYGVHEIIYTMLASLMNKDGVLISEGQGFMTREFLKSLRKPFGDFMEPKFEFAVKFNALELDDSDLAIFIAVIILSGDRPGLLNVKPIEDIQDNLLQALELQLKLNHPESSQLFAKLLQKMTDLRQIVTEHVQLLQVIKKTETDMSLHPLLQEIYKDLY
Protocol: Protein containing the human PPARgamma-ligand binding domain (LBD) is prepared as a GST fusion protein in E.coli and purified by affinity chromatography. […] The fusion protein is expressed in the E.coli strain BL21(DE3) recommended for pGEX vectors after induction with 0.2 mM IPTG for 4 hours at 25° C. The bacteria are pelleted after the induction and frozen in batches in PBS, pH 7.4. After opening up in a French Press, the dissolved GST-PPARgamma-LBD-fusion protein is purified using a GSTrap column (Pharmacia). Elution is carried out by the addition of 20 mM reduced glutathione.
The GST-PPARgamma-LBD-protein fractions are desalinated using a HiTrap desalting column (Pharmacia) and the protein concentration is determined using a standard assay.
The assay buffer consists of 25 mM Hepes pH7.4, 100 mM NaCl,1 mM DTT, 0.1% Tween-20, 0.1% BSA. […] The final DMSO concentration in the assay is 1% (v/v). A 1% DMSO solution is used as the background control (NSB). The measurement is done using a Packard fusion measuring device.

[2] = target: T2, human PPARgamma-ligand binding domain (LBD) (Homo sapiens, UniProt P37231); assay: SPA assay: displacement of 3H-labelled rosiglitazone from GST-PPARgamma-LBD; details: NSB 217, Bmax 911
T2 sequence (P37231 205-505): T1 sequence (P37231 205-505)
T2 sequence (P19793 220-461 partner limits assumed): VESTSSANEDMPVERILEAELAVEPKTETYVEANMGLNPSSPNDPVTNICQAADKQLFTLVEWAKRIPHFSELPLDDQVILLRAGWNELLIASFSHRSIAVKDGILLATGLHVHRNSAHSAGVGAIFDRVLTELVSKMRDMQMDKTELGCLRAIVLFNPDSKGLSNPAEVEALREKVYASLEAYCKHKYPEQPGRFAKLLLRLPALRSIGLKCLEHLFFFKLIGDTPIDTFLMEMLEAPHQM
Protocol: Protein containing the human PPARgamma-ligand binding domain (LBD) is prepared as a GST fusion protein in E.coli and purified by affinity chromatography. To do this, a DNA section which codes for the amino acids 205-505 of the human PPARgamma2 transcription factor (cf. Genbank entry U79012) is subcloned via the additionally introduced restriction cutting sites BamH I and Xho I into the expression vector pGEX-4T-1 (Amersham) and the sequence of the section is monitored. […] The bacteria are pelleted after the induction and frozen in batches in PBS, pH 7.4. After opening up in a French Press, the dissolved GST-PPARgamma-LBD-fusion protein is purified using a GSTrap column (Pharmacia). Elution is carried out by the addition of 20 mM reduced glutathione. The GST-PPARgamma-LBD-protein fractions are desalinated using a HiTrap desalting column (Pharmacia) and the protein concentration is determined using a standard assay. Protein containing the human RXRalpha ligand binding domain (LBD) is prepared as a His tag fusion protein in E.coli and purified by affinity chromatography. To do this a DNA section which codes for the amino acids 220-461 of the human RXRalpha transcription factor (cf. Genbank entry NM_002957, nt 729-1457) is subcloned via the additionally introduced restriction cutting sites BamH I and Not I into the expression vector pET28c (Novagen) and the sequence of the section is monitored. […] The bacteria are pelleted after the expression and frozen in batches in PBS, pH 7.4. After opening up in a French Press, the dissolved His-RXRalpha-LBD-fusion protein is purified using a HiTrap chelating column (Pharmacia). Elution is carried out using a 500 mM imidazole step. The His-RXRalpha-LBD protein fractions are desalinated using a HiTrap desalting column (Pharmacia) and the protein concentration is determined using a standard assay. A description of the SPA assay format can be found in Mukheriee R et al., J Steroid Biochem Mol Biol (2002) 81:217-225.

[3] = target: T3, ligand binding domain of the human PPARgamma2 transcription factor (Gal4 DNA binding domain fusion) (Homo sapiens, UniProt P37231); assay: Luciferase activity in stably transformed PPARgamma reporter cell line (CHO-K1 clone 11); format: cell-based; details: 24 hours
T3 construct: codes for amino acids 205-505 of the human PPARgamma2 transcription factor; expressed in transfected cells
T3 sequence (P37231 205-505): T1 sequence (P37231 205-505)
Protocol: The resulting plasmid pFA-CMV/hPPARgamma2-LBD codes N-terminally of the PPARgamma-LBD in the same reading frame for a Gal4 DNA binding domain. In addition the plasmid codes for a neomycin resistance.
The cell line CHO-K1 (ATCC CCL-61) is cotransfected with the plasmids pFA-CMV/hPPARgamma2-LBD and pFR-Luc (Stratagene). pFR-Luc codes for the luciferase gene under the control of a five-times repeated yeast Gal4 binding site. The transfection is carried out with lipofectamine2000 in accordance with the manufacturer's instructions.
After six days' cultivation the cells are passaged and kept in culture for another 10 days. The resulting neomycin-resistant colonies are picked out under the microscope and transferred into 96 well-dishes and cultured.
The test substances are brought to 100 times the desired concentration with a suitable solvent, e.g. DMSO, and diluted 1:100 with the medium placed in the cell culture plate. The solvent used, e.g. DMSO, is used as the background control in the same concentration.
Luminescence is measured after a five minute wait using a Packard TopCount NXT. The luciferase activity is obtained by integrating the relative luciferase units (RLU) of the first ten seconds after the start of measurement.

[4] = Dissolution of active substances from tablets; format: physicochemical; details: 900 ml 0.1 M phosphate buffer pH 7.5, 75 rpm
[5] = animal model; cited from earlier work
[6] = test system: Adipose Protein 2 (aP2) expression; assay: Stimulation of aP2 expression in 3T3-L1 cells (real time PCR); format: cell-based, mouse; details: 10 μmol/L
From the text: 3T3-L1 mouse preadipocytes are cultivated in DMEM (Dulbecco's modified eagle medium) with 10% foetal calf serum (FBS). PC12W cells are cultivated in DMEM with 5% FBS and 10% equine serum. In both cases the media contain 1% penicillin/streptomycin.
The differentiation of adipocytes is induced 2-3 days after cell confluence by adding a differentiating solution. This contains • 1 μmol/L of dexamethasone, • 0.5 mmol/L of 3-isobutyl-1-methylxanthine, • 1.67 μmol/L of insulin, and • 10% FBS.
Then the cells are stimulated for another 48 hours before finally being analysed (day 4).
RNA isolation, reverse transcription and quantification of gene expression are carried out using an ABI 7000 sequence detection system-for real time PCR (described in Janke et al, Diabetes 51:1699-707, 2002). The endogenous control used for the real time PCR consists of the household genes 18S rRNA and hypoxanthine guanine phosphoribosyl transferase (hprt).

Row | Structure (SMILES) | direct activation of the PPARgamma-LBD / recruiting of the LXXLL peptide [1] | SPA signal, bound 3H-rosiglitazone (MW) ([2]; 1.00E−04 M test substance) | SPA signal, bound 3H-rosiglitazone (MW) ([2]; 1.00E−05 M test substance) | SPA signal, bound 3H-rosiglitazone (MW) ([2]; 1.00E−06 M test substance) | SPA signal, bound 3H-rosiglitazone (MW) ([2]; 1.00E−07 M test substance) | SPA signal, bound 3H-rosiglitazone (MW) ([2]; 3.00E−05 M test substance) | SPA signal, bound 3H-rosiglitazone (MW) ([2]; 3.00E−06 M test substance) | SPA signal, bound 3H-rosiglitazone (MW) ([2]; 3.00E−07 M test substance) | luciferase activity (MW) ([3]; 1.00E−04 M) | luciferase activity (MW) ([3]; 1.00E−05 M) | luciferase activity (MW) ([3]; 1.00E−06 M) | luciferase activity (MW) ([3]; 3.00E−05 M) | luciferase activity (MW) ([3]; 3.00E−06 M) | luciferase activity (MW) ([3]; 3.00E−07 M) | dissolved after 30 minutes ([4]; first batch) | dissolved after 30 minutes ([4]; second batch) | dissolved after 30 minutes ([4]; third batch) | insulin sensitivity [5] | stimulation of aP2 expression, factor [6]
1 | CCCCc1nc(Cl)c(CO)n1Cc1ccc(-c2ccccc2-c2nn[nH]n2)cc1 [losartan] | does not result in any direct activation | 611 | 787 | 901 | 915 | 784 | 814 | 835 | 11322 RLU | 709 RLU | 589 RLU | 3271 RLU | 672 RLU | 874 RLU |  |  |  |  | 
2 | CCCc1nc2c(C)cc(-c3nc4ccccc4n3C)cc2n1Cc1ccc(-c2ccccc2C(=O)O)cc1 [telmisartan sodium salt] |  |  |  |  |  |  |  |  |  |  |  |  |  |  | 92±1.5% | 96±1.8% | 100±1.0% |  | 
3 | CCCCC1=NC2(CCCC2)C(=O)N1Cc1ccc(-c2ccccc2-c2nnn[nH]2)cc1 [irbesartan] | does not result in any direct activation | 510 | 723 | 815 | 913 | 648 | 779 | 810 | 29600 RLU | 3292 RLU | 657 RLU | 22133 RLU | 1028 RLU | 491 RLU |  |  |  | Improvement to the insulin sensitivity | 
4 | CCc1ccc(CCOc2ccc(CC3SC(=O)NC3=O)cc2)nc1 (stereo not drawn) [pioglitazone] |  |  |  |  |  |  |  |  |  |  |  |  |  |  |  |  |  |  | 4.5±1
